# Measurements: patent US12435104B2, “Cyclic dinucleotides as sting agonists” (BEIGENE, LTD., priority 2019, dated 2025)
# Where a name gives a salt, the structure may show the parent alone.
# Assays:
# STING in THP1-Dual Cells = assay: STING cellular assay in THP1-Dual cells (ISG54-Lucia luciferase reporter); conditions: Homo sapiens, 24 h, read-out: Cellular activity EC50 in THP1-Dual Cells
# [1] = system: hSTING-R232 in THP1-Dual KI-hSTING-R232 Cells; assay: STING cellular assay in THP1-Dual KI-hSTING-R232 cells (Lucia luciferase reporter); conditions: Homo sapiens, THP1-Dual KI-hSTING-R232, 24 h, read-out: Cellular activity EC50 in THP1-Dual KI-hSTING-R232 Cells
SMILES,EC50 (STING in THP1-Dual Cells),EC50 [1]
"Nc1nc2c(ncn2[C@@H]2O[C@@H]3COP(=O)(O)O[C@H]4[C@H](n5cnc6c(N)ncnc65)O[C@H](COP(=O)(O)O[C@H]3[C@H]2O)[C@]42CC2(F)F)c(=O)[nH]1 [Example 1, 2-amino-9-((1R,5′S,7′R,8′R,12a′R,14′R,15′R,15a′S)-7′-(6-amino-9H-purin-9-yl)-2,2-difluoro-2′,10′,15′-trihydroxy-2′,10′-dioxidooctahydro-12′H-spiro[cyclopropane-1,16′-[5,8]methanofuro[3,2-1][1,3,6,9,11]pentaoxa[2,10]diphosphacyclotetradecin]-14′-yl)-1,9-dihydro-6H-purin-6-one triethylamine salt]",2680 nM,3210 nM
"Nc1nc2c(ncn2[C@@H]2O[C@@H]3CO[P@@](O)(=S)O[C@H]4[C@H](n5cnc6c(N)ncnc65)O[C@H](COP(O)(=S)O[C@H]3[C@H]2F)[C@]42CC2(F)F)c(=O)[nH]1 (stereo partly drawn) [Example 2, 2-amino-9-((1R,5′S,7′R,8′R,10′R,12a′R,14′R,15′R,15a′R)-7′-(6-amino-9H-purin-9-yl)-2,2,15′-trifluoro-2′,10′-dihydroxy-2′,10′-disulfidooctahydro-12′H-spiro[cyclopropane-1,16′-[5,8]methanofuro[3,2-1][1,3,6,9,11]pentaoxa[2,10]diphosphacyclotetradecin]-14′-yl)-1,9-dihydro-6H-purin-6-one]",1760 nM,2320 nM
